According to US20110052725A1, “THERAPEUTIC AGENT FOR INFECTIOUS SKIN AND MUCOSAL DISEASE” (priority 2007, published 2011):
Marks after values point to notes of the source that are not given here.

What was measured:
[1] = system: herpesvirus type 1 (HSV1 kos); test: Antiviral activity against herpesvirus type 1 (TCID50, CRFK cell); assay type: cell-based
Experimental: An antiviral activity against herpesvirus type 1 (HSV-1, Herpes simplex virus type 1) (virus which causes mainly herpes labialis, and also causes herpetic stomatitis, herpetic keratitis and herpes simplex encephalitis) was measured. The method will be described below.
Five-hundred ml of a culture solution of virus (herpesvirus type 1 kos) which had been cultured with CRFK cell (feline kidney cell) was centrifuged at 3,000 rpm for 3 hours, and to the sediment was added 4 ml of distilled water to thereby prepare a viral suspension. The viral suspension was sterilized by filtration using a 0.45 μm membrane filter, and cryopreserved at −80° C. until its usage.
(§1) Each of the agents was diluted with sterile distilled water, to thereby prepare a dilution series of 1,250 ppm, 125 ppm, 12.5 ppm, 1.25 ppm and 0.125 ppm.
(§2) In order to neutralize chlorine dioxide in the agent, a 0.0025M sodium thiosulfate solution was prepared using Eagle MEM, and sterilized by filtration using a 0.22 μm membrane filter.
(§3) To each of the various concentrations of the agents (240 μl) was added virus (60 μl) and stirred, to thereby sensitize the virus with the agent, for 15, 30, 60, 120 or 180 seconds. Forty μl of virus from each reaction liquid was added to a 0.0025M sodium thiosulfate solution (360 μl), to thereby neutralize chlorine dioxide. As a virus control, one diluted with distilled water, instead of the agent, was used.
(§4) Each of the agent-treated virus liquid and the control virus liquid diluted with distilled water was neutralized with a 0.0025M sodium thiosulfate solution, and then neutralized virus (100 μl) was diluted with Eagle MEM (900 μl), to obtain a 10-fold dilution series of the treated virus.
(§5) CRFK cell (50 μl/well) was incubated in a 96-well microplate for 3 days, and the diluted virus was inoculated therein (50 μl/well, 4 well/dilution). Each cell was cultured in a CO2 incubator at 37° C. for 5 days, and CPE was observed. TCID50 was calculated based on the above-mentioned equation 1 (Kerber's formula).

[2] = system: herpesvirus type 2 (HSV2 UF-strain); test: Antiviral activity against herpesvirus type 2 (TCID50); assay type: cell-based
Experimental: as §1, §2, §3, §4, §5
The antiviral activity against herpesvirus type 2 (HSV-2, Herpes simplex virus type 2) (virus which causes mainly genital herpes, neonatal herpes, herpetic meningitis and herpetic myelitis) was measured. Substantially the same test as in Example 10 was performed, except that the herpesvirus type 2 (standard strain; UF strain) was used instead of the herpesvirus type 1.

OCl [Sodium hypochlorite]
Reduction of viral infectivity titer ([1]; 1 ppm or less): apparent reduction of the infectivity titer was not observed | Reduction of viral infectivity titer ([1]; 10 ppm, 180 seconds): ≤ 1 log | Reduction of viral infectivity titer ([1]; discussion, compared with chlorine dioxide 10 ppm for 15 seconds): apparent reduction of the infectivity titer was not observed | Viral infectivity titer TCID50 ([2]; 0.1 ppm, agent sensitized time 0 second): 4.25 TCID50/50 μL unit (10^n) | Viral infectivity titer TCID50 ([2]; 0.1 ppm, agent sensitized time 30 second): 4.25 TCID50/50 μL unit (10^n) | Viral infectivity titer TCID50 ([2]; 0.1 ppm, agent sensitized time 60 second): 4.25 TCID50/50 μL unit (10^n) | Viral infectivity titer TCID50 ([2]; 0.1 ppm, agent sensitized time 120 second): 4.25 TCID50/50 μL unit (10^n) | Viral infectivity titer TCID50 ([2]; 1 ppm, agent sensitized time 0 second): 4.25 TCID50/50 μL unit (10^n) | Viral infectivity titer TCID50 ([2]; 1 ppm, agent sensitized time 30 second): 4 TCID50/50 μL unit (10^n) | Viral infectivity titer TCID50 ([2]; 1 ppm, agent sensitized time 60 second): 3.75 TCID50/50 μL unit (10^n) | Viral infectivity titer TCID50 ([2]; 1 ppm, agent sensitized time 120 second): 3.75 TCID50/50 μL unit (10^n) | Viral infectivity titer TCID50 ([2]; 10 ppm, agent sensitized time 0 second): 4.25 TCID50/50 μL unit (10^n) | Viral infectivity titer TCID50 ([2]; 10 ppm, agent sensitized time 30 second): 0 TCID50/50 μL unit (10^n) | Viral infectivity titer TCID50 ([2]; 10 ppm, agent sensitized time 60 second): 0 TCID50/50 μL unit (10^n) | Viral infectivity titer TCID50 ([2]; 10 ppm, agent sensitized time 120 second): 0 TCID50/50 μL unit (10^n)
